# Laboratory results reported in patent publication US20230140430A1, “1H-PYRAZOLO[4,3-d]PYRIMIDINE COMPOUNDS AS TOLL-LIKE RECEPTOR 7 (TLR7) AGONISTS” (BRISTOL-MYERS SQUIBB COMPANY, priority 2020, published 2023).
# Where two headings read alike, the source gives them in different places.
# Assays:
# human TLR7 = target: T1, human TLR7 (Homo sapiens, UniProt Q9NYK1); assay: Human TLR7 agonist activity assay (HEK-Blue TLR7 SEAP reporter); assay type: cell-based; details: HEK-Blue TLR7 cells, 18 h treatment, average where assay was performed multiple times, read-out: hTLR7 Agonism EC50
# T1 construct: host or cells: HEK-Blue TLR7 cells (engineered human embryonic kidney cells)
# T1 sequence (Q9NYK1 27-1049): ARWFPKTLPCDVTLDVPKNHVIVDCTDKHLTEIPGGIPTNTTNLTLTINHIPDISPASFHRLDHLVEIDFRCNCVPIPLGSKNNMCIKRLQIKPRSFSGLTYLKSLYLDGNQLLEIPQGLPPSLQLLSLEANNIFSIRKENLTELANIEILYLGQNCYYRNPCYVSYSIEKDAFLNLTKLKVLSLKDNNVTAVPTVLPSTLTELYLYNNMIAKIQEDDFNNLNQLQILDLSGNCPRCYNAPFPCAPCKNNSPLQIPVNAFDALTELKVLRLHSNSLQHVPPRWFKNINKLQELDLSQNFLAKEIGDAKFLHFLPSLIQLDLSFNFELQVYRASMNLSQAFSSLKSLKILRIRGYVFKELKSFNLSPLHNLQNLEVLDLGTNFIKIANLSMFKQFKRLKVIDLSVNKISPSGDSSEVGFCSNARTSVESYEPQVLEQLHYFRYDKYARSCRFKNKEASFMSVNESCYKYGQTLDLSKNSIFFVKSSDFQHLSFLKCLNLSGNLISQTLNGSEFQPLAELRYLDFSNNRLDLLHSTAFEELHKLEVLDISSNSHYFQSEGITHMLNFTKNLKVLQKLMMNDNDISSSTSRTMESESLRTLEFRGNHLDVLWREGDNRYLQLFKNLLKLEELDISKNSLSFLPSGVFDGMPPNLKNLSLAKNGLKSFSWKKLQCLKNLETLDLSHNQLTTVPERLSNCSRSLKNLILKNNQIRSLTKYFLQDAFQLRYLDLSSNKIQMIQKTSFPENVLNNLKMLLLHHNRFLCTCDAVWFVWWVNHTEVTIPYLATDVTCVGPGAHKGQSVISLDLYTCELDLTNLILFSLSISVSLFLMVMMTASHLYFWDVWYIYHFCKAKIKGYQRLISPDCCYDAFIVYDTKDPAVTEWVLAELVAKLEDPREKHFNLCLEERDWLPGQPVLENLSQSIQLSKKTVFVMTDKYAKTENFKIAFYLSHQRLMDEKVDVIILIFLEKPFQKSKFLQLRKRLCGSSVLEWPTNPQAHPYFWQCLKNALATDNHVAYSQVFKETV
# Experimental: This procedure describes a method for assaying human TLR7 (hTLR7) agonist activity of the compounds disclosed in this specification.
# HEK-Blue™ TLR7 cells were added to each well of a 384-well tissue-culture plate (15,000 cells per well) and incubated 16-18 h at 37° C., 5% CO2. Compounds (100 nl) were dispensed into wells containing the HEK-Blue™ TLR cells and the treated cells were incubated at 37° C., 5% CO2. After 18 h treatment ten microliters of freshly-prepared Quanti-Blue™ reagent (Invivogen) was added to each well, incubated for 30 min (37° C., 5% CO2) and SEAP levels measured using an Envision plate reader (OD=620 nm).
# CD69 = assay: Induction of CD69 in human whole blood; assay type: cell-based
# Experimental: The induction of Type I interferon (IFN) MX-1 genes and the B-cell activation marker CD69 are downstream events that occur upon activation of the TLR7 pathway. The following is a human whole blood assay that measures their induction in response to a TLR7 agonist.
# Heparinized human whole blood was harvested from human subjects and treated with test TLR7 agonist compounds at 1 mM. The blood was diluted with RPMI 1640 media and Echo was used to predot 10 nL per well giving a final concentration of 1 uM (10 nL in 10 uL of blood). After mixing on a shaker for 30 sec, the plates were covered and placed in a 37° C. chamber for o/n=17 hrs. Fixing/lysis buffer was prepared (5×->1× in H2O, warm at 37° C.; Cat #BD 558049) and kept the perm buffer (on ice) for later use.
# For surface markers staining (CD69): prepared surface Abs: 0.045 ul hCD14-FITC (ThermoFisher Cat #MHCD1401)+0.6 ul hCD19-ef450 (ThermoFisher Cat #48-0198-42)+1.5 ul hCD69-PE (cat #BD555531)+0.855 ul FACS buffer. Added 3 ul/well, spin1000 rpm for 1 min and mixed on shaker for 30 sec, put on ice for 30 mins. Stop stimulation after 30 min with 70 uL of prewarmed 1× fix/lysis buffer and use Feliex mate to resuspend (15 times, change tips for each plate) and incubate at 37 C for 10 min.
# Centrifuge at 2000 rpm for 5 min aspirate with HCS plate washer, mix on shaker for 30 sec and then wash with 70 uL in dPBS and pelleted 2×s (2000 rpm for 5 min) and 50 ul wash in FACS buffer pelleted 1×s (2000 rpm for 5 min). Mix on shaker for 30 sec. For Intracellular markers staining (MX-1): Add 50 ul of BD Perm buffer III and mix on shaker for 30 sec. Incubate on ice for 30 minutes (in the dark). Wash with 50 uL of FACS buffer 2× (spin @2300 rpm×5 min after perm) followed by mixing on shaker for 30 sec. Resuspended in 20 ul of FACS buffer containing MX1 antibody ( )(4812)-Alexa 647: Novus Biologicals #NBP2-43704AF647) 20 ul FACS bf+0.8 ul hlgG+0.04 ul MX-1. Spin 1000 rpm for 1 min, mix on shaker for 30se and the samples were incubated at RT in the dark for 45 minutes followed by washing 2×FACS buffer (spin @2300 rpm×5 min after perm). Resuspend 20 ul (35 uL total per well) of FACS buffer and cover with foil and place in 4° C. to read the following day. Plates were read on iQuePlus. The results were loaded into toolset and […] curves are generated in curve master. The y-axis 100% is set to 1 uM of resiquimod.
# [1] = human whole blood, 17 hrs, CD69 surface staining, 100% set to 1 uM of resiquimod, average where assay was performed multiple times, read-out: hWB CD69 EC50
# [2] = Homo sapiens, 17 h, read-out: hWB CD69 EC50 (nM)
Compound,EC50 (human TLR7) [nM],EC50 (CD69; [1]) [nM],EC50 (CD69; [2]) [nM]
"CCC[C@@H](CCO)Nc1nc(N)nc2cnn(Cc3ccc(C(=O)N4CCN(CCO)CC4)cc3OC)c12 [Compound 123, (3S)-3-{[5-amino-1-({4-[4-(2-hydroxyethyl)piperazine-1-carbonyl]-2-methoxyphenyl}methyl)-1H-pyrazolo[4,3-d]pyrimidin-7-yl]amino}hexan-1-ol]",115,71.9,–
"CCCCNc1nc(N)nc2cnn(Cc3ccc(C(=O)NC4CCC4)cc3OC)c12 [Compound 103, 4-{[5-amino-7-(butylamino)-1H-pyrazolo[4,3-d]pyrimidin-1-yl]methyl}-N-cyclobutyl-3-methoxybenzamide]",1660,≥ 1000,–
"CCC[C@@H](CCO)Nc1nc(N)nc2cnn(Cc3ccc(C(=O)NC4CCN(C)CC4)cc3OC)c12 [Compound 125, 4-[(5-amino-7-{[(3S)-1-hydroxyhexan-3-yl]amino}-1H-pyrazolo[4,3-d]pyrimidin-1-yl)methyl]-3-methoxy-N-(1-methylpiperidin-4-yl)benzamide]",747,–,332
"CCCCNc1nc(N)nc2cnn(Cc3ccc(C(=O)NCCN(C)C)cc3OC)c12 [Compound 111, 4-{[5-amino-7-(butylamino)-1H-pyrazolo[4,3-d]pyrimidin-1-yl]methyl}-N-[2-(dimethylamino)ethyl]-3-methoxybenzamide]",78,6.8,–
"CCCCNc1nc(N)nc2cnn(Cc3ccc(C(=O)N4CCN(CCO)CC4)cc3OC)c12 [Compound 105, 2-[4-(4-{[5-amino-7-(butylamino)-1H-pyrazolo[4,3-d]pyrimidin-1-yl]methyl}-3-methoxybenzoyl)piperazin-1-yl]ethan-1-ol]",32.6,32.1,–
"CCCCNc1nc(N)nc2cnn(Cc3ccc(C(=O)NC4CCN(C)CC4)cc3OC)c12 [Compound 114, 4-{[5-amino-7-(butylamino)-1H-pyrazolo[4,3-d]pyrimidin-1-yl]methyl}-3-methoxy-N-(1-methylpiperidin-4-yl)benzamide]",68.9,–,24.4
"CCCCNc1nc(N)nc2cnn(Cc3ccc(C(=O)NC4CCN(C)CC4)cc3OC3CC3)c12 [Compound 121, 4-{[5-amino-7-(butylamino)-1H-pyrazolo[4,3-d]pyrimidin-1-yl]methyl}-3-cyclopropoxy-N-(1-methylpiperidin-4-yl)benzamide]",502,–,99.1

# Further lines, with some results ahead:
EC50 (human TLR7) [nM],EC50 (CD69; [1]) [nM],Compound,EC50 (CD69; [2]) [nM]
29.7,49.6,"CCCCNc1nc(N)nc2cnn(Cc3ccc(C(=O)N4CCC(N(C)C)CC4)cc3OC)c12 [Compound 109, N7-butyl-1-({4-[4-(dimethylamino)piperidine-1-carbonyl]-2-methoxyphenyl}methyl)-1H-pyrazolo[4,3-d]pyrimidine-5,7-diamine]",–
20.8,4.5,"CCCCNc1nc(N)nc2cnn(Cc3ccc(C(=O)N4CCN(C)CC4)cc3OC)c12 [Compound 106, N7-butyl-1-{[2-methoxy-4-(4-methylpiperazine-1-carbonyl)phenyl]methyl}-1H-pyrazolo[4,3-d]pyrimidine-5,7-diamine]",–
16.3,3.9,"CCCCNc1nc(N)nc2cnn(Cc3ccc(C(=O)N4CCCN(C)CC4)cc3OC)c12 [Compound 110, N7-butyl-1-{[2-methoxy-4-(4-methyl-1,4-diazepane-1-carbonyl)phenyl]methyl}-1H-pyrazolo[4,3-d]pyrimidine-5,7-diamine]",–
2190,363,"COc1cc(C(=O)N2CCNC(=O)C2)ccc1Cn1ncc2nc(N)nc(NCc3cc(C)on3)c21 [Compound 131, 4-{4-[(5-amino-7-{[(5-methyl-1,2-oxazo1-3-yl)methyl]amino}-1H-pyrazolo[4,3-d]pyrimidin-1-yl)methyl]-3-methoxybenzoyl}piperazin-2-one]",–
145,15.8,"COc1cc(C(=O)N2CCN(C)CC2)ccc1Cn1ncc2nc(N)nc(NCc3cc(C)on3)c21 [Compound 130, 1-{[2-methoxy-4-(4-methylpiperazine-1-carbonyl)phenyl]methyl}-N7-[(5-methyl-1,2-oxazo1-3-yl)methyl]-1H-pyrazolo[4,3-d]pyrimidine-5,7-diamine]",–
95.1,10.9,"COc1cc(C(=O)N2CCN(C)CC2)ccc1Cn1ncc2nc(N)nc(NCc3noc(C)n3)c21 [Compound 132, 1-{[2-methoxy-4-(4-methylpiperazine-1-carbonyl)phenyl]methyl}-N7-[(5-methyl-1,2,4-oxadiazo1-3-yl)methyl]-1H-pyrazolo[4,3-d]pyrimidine-5,7-diamine]",–
41.6,42.6,"CCCCNc1nc(N)nc2cnn(Cc3ccc(C(=O)N4CCC(CCO)CC4)cc3OC)c12 [Compound 116, 2-[1-(4-{[5-amino-7-(butylamino)-1H-pyrazolo[4,3-d]pyrimidin-1-yl]methyl}-3-methoxybenzoyl)piperidin-4-yl]ethan-1-ol]",–
